Assay results reported in US10479780B2, “Aminopyrazole derivatives” (Chugai Seiyaku Kabushiki Kaisha, priority 2015, dated 2019).

Key:
Format in all cases: biochemical
[1] = biological target: T1, human Yes1 enzyme (Homo sapiens, UniProt P07947); experiment: Yes1 enzyme inhibitory activity (time-resolved fluorometry, biotinylated peptide phosphorylation); settings: read-out: YES_IC50
T1 construct: made in house
Summary of the method: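 Inhibition was expressed against a compound-free control to give IC50, using TR-FRET read-out (Eu-cryptate anti-pTyr antibody, streptavidin-XL665).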

[2] = biological target: T2, human Src enzyme (Homo sapiens, UniProt P12931); experiment: Src enzyme inhibitory activity (time-resolved fluorometry, biotinylated peptide phosphorylation); settings: read-out: SRC_IC50
T2 construct: purchased Carna Biosciences, Inc. 08-173
Summary of the method: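 Compounds were tested for blocking tyrosine phosphorylation of a biotinylated peptide substrate by recombinant human Src. Phosphorylated product was quantified by time-resolved fluorometry using europium cryptate and XL665 conjugates, and IC50 was calculated against the compound-free control.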

[3] = biological target: T3, human Lck enzyme (Homo sapiens, UniProt P06239); experiment: Lck enzyme inhibitory activity (time-resolved fluorometry, biotinylated peptide phosphorylation); settings: read-out: LCK_IC50
T3 construct: purchased Carna Biosciences, Inc. 08-170
Summary of the method: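 Readout pairs a europium cryptate-labelled anti-phosphotyrosine antibody with XL665-streptavidin, measured by time-resolved fluorescence. IC50 derived from percent inhibition against untreated controls.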

T2 sequence (P12931 whole entry): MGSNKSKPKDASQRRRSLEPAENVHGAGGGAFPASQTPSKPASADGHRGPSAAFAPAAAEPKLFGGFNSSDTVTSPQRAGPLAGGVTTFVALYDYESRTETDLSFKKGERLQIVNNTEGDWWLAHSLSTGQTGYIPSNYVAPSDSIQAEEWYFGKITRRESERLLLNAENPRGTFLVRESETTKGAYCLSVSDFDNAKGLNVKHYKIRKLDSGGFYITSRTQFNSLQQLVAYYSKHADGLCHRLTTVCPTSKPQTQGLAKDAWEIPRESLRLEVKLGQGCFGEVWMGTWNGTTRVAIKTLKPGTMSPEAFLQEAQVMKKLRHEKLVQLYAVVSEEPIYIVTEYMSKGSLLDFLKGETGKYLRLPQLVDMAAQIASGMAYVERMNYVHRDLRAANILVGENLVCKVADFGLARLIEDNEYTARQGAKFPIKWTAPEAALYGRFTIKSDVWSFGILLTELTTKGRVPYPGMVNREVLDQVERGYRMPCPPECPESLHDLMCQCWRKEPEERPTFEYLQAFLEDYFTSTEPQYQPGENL
T3 sequence (P06239 whole entry): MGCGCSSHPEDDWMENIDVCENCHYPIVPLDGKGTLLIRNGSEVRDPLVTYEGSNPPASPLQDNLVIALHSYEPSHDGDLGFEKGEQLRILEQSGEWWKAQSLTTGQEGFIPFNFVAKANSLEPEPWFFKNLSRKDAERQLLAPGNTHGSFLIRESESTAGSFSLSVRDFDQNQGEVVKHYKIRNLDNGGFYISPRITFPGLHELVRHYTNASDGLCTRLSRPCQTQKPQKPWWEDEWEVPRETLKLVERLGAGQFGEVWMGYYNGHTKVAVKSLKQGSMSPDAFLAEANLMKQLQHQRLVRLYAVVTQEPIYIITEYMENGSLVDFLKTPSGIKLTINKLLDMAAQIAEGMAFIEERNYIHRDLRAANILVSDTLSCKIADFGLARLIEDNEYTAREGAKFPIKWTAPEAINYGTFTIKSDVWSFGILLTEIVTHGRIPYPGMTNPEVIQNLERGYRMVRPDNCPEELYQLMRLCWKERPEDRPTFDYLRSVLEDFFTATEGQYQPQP
T1 sequence (P07947 whole entry): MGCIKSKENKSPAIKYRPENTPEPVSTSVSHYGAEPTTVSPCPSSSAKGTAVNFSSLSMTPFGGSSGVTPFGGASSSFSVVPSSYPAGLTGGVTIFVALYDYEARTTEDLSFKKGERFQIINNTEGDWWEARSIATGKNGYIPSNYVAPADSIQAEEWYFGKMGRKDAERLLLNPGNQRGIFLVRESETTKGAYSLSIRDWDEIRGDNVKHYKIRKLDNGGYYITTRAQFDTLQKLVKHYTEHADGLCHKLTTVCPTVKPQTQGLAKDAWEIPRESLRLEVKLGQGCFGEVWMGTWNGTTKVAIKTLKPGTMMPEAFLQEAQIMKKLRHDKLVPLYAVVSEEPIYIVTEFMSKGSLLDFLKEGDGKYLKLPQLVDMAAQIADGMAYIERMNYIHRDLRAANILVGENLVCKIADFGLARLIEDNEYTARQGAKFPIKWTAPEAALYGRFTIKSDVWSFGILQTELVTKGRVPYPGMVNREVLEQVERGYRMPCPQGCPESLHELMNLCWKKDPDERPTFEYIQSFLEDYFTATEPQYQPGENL

IC50 [1] | IC50 [2] | IC50 [3] | Compound
0.86 nM | 14 nM | 2.6 nM | CC(C)N1CCC(c2cc3[nH]c(C(=O)c4cnn(-c5ccc(Oc6cccc(F)c6F)cc5F)c4N)cc3cc2F)CC1 [Example 5-1-011, [5-amino-1-[4-(2,3-difluorophenoxy)-2-fluorophenyl]pyrazol-4-yl]-[5-fluoro-6-(1-propan-2-ylpiperidin-4-yl)-1H-indol-2-yl]methanone]
2.5 nM | 310 nM | 23 nM | Cc1cc(-n2ncc(C(=O)c3cc4cc(C)c(C5CCN(C(C)C)CC5)cc4[nH]3)c2N)ccc1Oc1ccccc1F [Example 5-1-012, [5-amino-1-[4-(2-fluorophenoxy)-3-methylphenyl]pyrazol-4-yl]-[5-methyl-6-(1-propan-2-ylpiperidin-4-yl)-1H-indd-2-yl] methanone]
1.6 nM | 30 nM | 2.5 nM | CC(C)N1CCC(c2cc3[nH]c(C(=O)c4cnn(-c5ccc(Oc6cccc(F)c6F)cc5)c4N)cc3cc2F)CC1 [Example 5-1-013, [5-amino-1-[4-(2,3-difluorophenoxy)phenyl]pyrazol-4-yl]-[5-fluoro-6-(1-propan-2-ylpiperidin-4-yl)-1H-indol-2-yl]methanone]
2.4 nM | 43 nM | 3 nM | CC(C)N1CCC(c2cc3[nH]c(C(=O)c4cnn(-c5ccc(Oc6cccc(F)c6)cc5)c4N)cc3cc2F)CC1 [Example 5-1-014, [5-amino-1-[4-(3-fluorophenoxy)phenyl]pyrazol-4-yl]-[5-fluoro-6-(1-propan-2-ylpiperidin-4-yl)-1H-indol-2-yl]methanone]
1.5 nM | 23 nM | 2.2 nM | CC(C)N1CCC(c2cc3[nH]c(C(=O)c4cnn(-c5ccc(Oc6ccccc6Cl)cc5)c4N)cc3cc2F)CC1 [Example 5-1-015, [5-amino-1-[4-(2-chlorophenoxy)phenyl]pyrazol-4-yl]-[5-fluoro-6-(1-propan-2-ylpiperidin-4-yl)-1H-indol-2-yl]methanone]
0.72 nM | 93 nM | 25 nM | CS(=O)(=O)Nc1cc2[nH]c(C(=O)c3cnn(-c4ccc(Oc5cccc(F)c5F)cc4Cl)c3N)cc2cc1F [Example 5-1-016, N-[2-[5-amino-1-[2-chloro-4-(2,3-difluorophenoxy)phenyl]pyrazole-4-carbonyl]-5-fluoro-1H-indol-6-yl]methanesulfonamide]
4.5 nM | 2400 nM | 630 nM | Cc1cc(-n2ncc(C(=O)c3cc4cc(F)c(NS(C)(=O)=O)cc4[nH]3)c2N)ccc1Oc1ccccc1F [Example 5-1-017, N-[2-[5-amino-1-[4-(2-fluorophenoxy)-3-methylphenyl]pyrazole-4-carbonyl]-5-fluoro-1H-indol-6-yl]methanesulfonamide]
2.2 nM | 110 nM | 33 nM | CS(=O)(=O)Nc1cc2[nH]c(C(=O)c3cnn(-c4ccc(Oc5ccccc5F)cc4Cl)c3N)cc2cc1F [Example 5-1-018, N-[2-[5-amino-1-[2-chloro-4-(2-fluorophenoxy)phenyl]pyrazole-4-carbonyl]-5-fluoro-1H-indol-6-yl]methanesulfonamide]
2.8 nM | 120 nM | 54 nM | Nc1c(C(=O)c2cc3cc(F)c(NS(=O)(=O)C4CC4)cc3[nH]2)cnn1-c1c(F)cc(Oc2ccccc2F)cc1F [Example 5-1-019, N-[2-[5-amino-1-[2,6-difluoro-4-(2-fluorophenoxy)phenyl]pyrazole-4-carbonyl]-5-fluoro-1H-indol-6-yl] cyclopropanesulfonamide]
5.7 nM | 190 nM | 51 nM | Cc1cc(Oc2ccccc2F)ncc1-n1ncc(C(=O)c2cc3cc(F)c(NS(=O)(=O)NC4CC4)cc3[nH]2)c1N [Example 5-1-020, [5-amino-1-[6-(2-fluorophenoxy)-4-methylpyridin-3-yl]pyrazol-4-yl]-[6-(cyclopropylsulfamoylamino)-5-fluoro-1H-indol-2-yl]methanone]
9.8 nM | 310 nM | 72 nM | Cc1cc(Oc2ccccc2F)ncc1-n1ncc(C(=O)c2cc3cc(F)c(NS(=O)(=O)NC(C)C)cc3[nH]2)c1N [Example 5-1-021, [5-amino-1-[6-(2-fluorophenoxy)-4-methylpyridin-3-yl]pyrazol-4-yl]-[5-fluoro-6-(propan-2-ylsulfamoylamino)-1H-indol-2-yl] methanone]
2 nM | 62 nM | 10 nM | CS(=O)(=O)Nc1cc2[nH]c(C(=O)c3cnn(-c4c(F)cc(Oc5ccccc5F)cc4F)c3N)cc2cc1F [Example 5-1-022, N-[2-[5-amino-1-[2,6-difluoro-4-(2-fluorophenoxy)phenyl]pyrazole-4-carbonyl]-5-fluoro-1H-indol-6-yl]methanesulfonamide]
16 nM | 240 nM | 64 nM | CS(=O)(=O)Nc1cc2[nH]c(C(=O)c3cnn(-c4c(Cl)cc(Oc5ccccc5F)cc4Cl)c3N)cc2cc1F [Example 5-1-023, N-[2-[5-amino-1-[2,6-dichloro-4-(2-fluorophenoxy)phenyl]pyrazole-4-carbonyl]-5-fluoro-1H-indol-6-yl]methanesulfonamide]
26 nM | 340 nM | 83 nM | CS(=O)(=O)Nc1cc2[nH]c(C(=O)c3cnn(-c4c(Cl)cc(Oc5cccc(F)c5F)cc4Cl)c3N)cc2cc1F [Example 5-1-024, N-[2-[5-amino-1-[2,6-dichloro-4-(2,3-difluorophenoxy)phenyl]pyrazole-4-carbonyl]-5-fluoro-1H-indol-6-yl]methanesulfonamide]
20 nM | 730 nM | 270 nM | Nc1c(C(=O)c2cc3cc(F)c(NS(=O)(=O)C4CC4)cc3[nH]2)cnn1-c1c(Cl)cc(Oc2ccccc2F)cc1Cl [Example 5-1-025, N-[2-[5-amino-1-[2,6-dichloro-4-(2-fluorophenoxy)phenyl]pyrazole-4-carbonyl]-5-fluoro-1H-indol-6-yl]cyclopropanesulfonamide]
64 nM | 660 nM | 390 nM | Nc1c(C(=O)c2cc3cc(F)c(NS(=O)(=O)C4CC4)cc3[nH]2)cnn1-c1c(Cl)cc(Oc2cccc(F)c2F)cc1Cl [Example 5-1-026, N-[2-[5-amino-1-[2,6-dichloro-4-(2,3-difluorophenoxy)phenyl]pyrazole-4-carbonyl]-5-fluoro-1H-indol-6-yl] cyclopropanesulfonamide]
0.84 nM | 65 nM | 20 nM | Nc1c(C(=O)c2cc3cc(F)c(NS(=O)(=O)CCCF)cc3[nH]2)cnn1-c1c(F)cc(Oc2ccccc2F)cc1F [Example 5-1-027, N-[2-[5-amino-1-[2,6-difluoro-4-(2-fluorophenoxy)phenyl]pyrazole-4-carbonyl]-5-fluoro-1H-indol-6-yl]-3-fluoropropane-1-sulfonamide]
13 nM | 350 nM | 200 nM | Nc1c(C(=O)c2cc3cc(F)c(NS(=O)(=O)CCCF)cc3[nH]2)cnn1-c1c(Cl)cc(Oc2cccc(F)c2F)cc1Cl [Example 5-1-028, N-[2-[5-amino-1-[2,6-dichloro-4-(2,3-difluorophenoxy)phenyl]pyrazole-4-carbonyl]-5-fluoro-1H-indol-6-yl]-3-fluoropropane-1-sulfanamide]
0.73 nM | 17 nM | 13 nM | Cc1cc(Oc2ccccc2F)ccc1-n1ncc(C(=O)c2cc3cc(F)c(NC(=O)C(F)(F)F)cc3[nH]2)c1N [Example 5-1-029, N-[2-[5-amino-1-[4-(2-fluorophenoxy)-2-methylphenyl]pyrazole-4-carbonyl]-5-fluoro-1H-indol-6-yl]-2,2,2-trifluoroacetamide]
2.4 nM | 76 nM | 8.7 nM | CS(=O)(=O)Nc1cc2[nH]c(C(=O)c3cnn(-c4c(F)cc(Oc5cccc(F)c5F)cc4F)c3N)cc2cc1F [Example 5-1-030, N-[2-[5-amino-1-[4-(2,3-difluorophenoxy)-2,6-difluorophenyl]pyrazole-4-carbonyl]-5-fluoro-1H-indol-6-yl]methanesulfonamide]
4.1 nM | 220 nM | 34 nM | Nc1c(C(=O)c2cc3cc(F)c(NS(=O)(=O)C4CC4)cc3[nH]2)cnn1-c1c(F)cc(Oc2cccc(F)c2F)cc1F [Example 5-1-031, N-[2-[5-amino-1-[4-(2,3-difluorophenoxy)-2,6-difluorophenyl]pyrazole-4-carbonyl]-5-fluoro-1H-indol-6-yl]cyclopropanesulfonamide]
11 nM | 380 nM | 130 nM | Cc1cc(Oc2ccccc2F)cc(C)c1-n1ncc(C(=O)c2cc3cc(F)c(NS(C)(=O)=O)cc3[nH]2)c1N [Example 5-1-032, N-[2-[5-amino-1-[4-(2-fluorophenoxy)-2,6-dimethylphenyl]pyrazole-4-carbonyl]-5-fluoro-1H-indol-6-yl]methanesulfonamide]
8.4 nM | 400 nM | 230 nM | Nc1c(C(=O)c2cc3cc(F)c(NS(=O)(=O)CCCF)cc3[nH]2)cnn1-c1c(Cl)cc(Oc2ccccc2F)cc1Cl [Example 5-1-033, N-[2-[5-amino-1-[2,6-dichloro-4-(2-fluorophenoxy)phenyl]pyrazole-4-carbonyl]-5-fluoro-1H-indol-6-yl]-3-fluoropropane-1-sulfonamide]
3.5 nM | 180 nM | 62 nM | Nc1c(C(=O)c2cc3cc(F)c(NS(=O)(=O)CCCF)cc3[nH]2)cnn1-c1c(F)cc(Oc2cccc(F)c2F)cc1F [Example 5-1-034, N-[2-[5-amino-1-[4-(2,3-difluorophenoxy)-2,6-difluorophenyl]pyrazole-4-carbonyl]-5-fluoro-1H-indol-6-yl]-3-fluoropropane-1-sulfonamide]
